Test results taken from ChEMBL document CHEMBL6071211, “Invention of VH-937, a Potent HIV-1 Maturation Inhibitor with the Potential for Infrequent Oral Dosing in Humans” (ACS Med Chem Lett, 2024).

Assays:
[1] = tested on: Human immunodeficiency virus 1; test: In vitro antiviral activity against fully replicating wild type HIV1 NL4-3; format: functional, organism-based
[2] = tested on: Human immunodeficiency virus 1; test: In vitro antiviral activity against fully replicating wild type HIV1 NL4-3 in presence of human serum; format: functional, organism-based
[3] = tested on: Human immunodeficiency virus 1; test: In vitro antiviral activity against fully replicating HIV1 NL4-3 harboring Gag T332S/V362I/prR41G mutant; format: functional, organism-based
[4] = tested on: Human immunodeficiency virus 1; test: In vitro antiviral activity against fully replicating HIV1 NL4-3 harboring Gag A364V mutant; format: functional, organism-based
[5] = tested on: Human immunodeficiency virus 1; test: Binding affinity to HIV1 Gag A364V mutant assessed as dissociation half life by virus-like particle (VLP) assay
[6] = Human immunodeficiency virus 1, NL4-3

| Compound | EC50 [1, 6] [nM] | EC50 [2, 6] [nM] | EC50 [3, 6] [nM] | EC50 [4, 6] [nM] | T1/2 [5] [min] | EC50 [1] [nM] | EC50 [2] [nM] | EC50 [3] [nM] | EC50 [4] [nM] |
| --- | --- | --- | --- | --- | --- | --- | --- | --- | --- |
| C=C(C)[C@@H]1CC[C@]2(NCCN3CCS(=O)(=O)CC3)CC[C@]3(C)[C@H](CC[C@@H]4[C@@]5(C)CC=C(C6=CCC(COc7cccc(C#N)n7)(C(=O)O)CC6)C(C)(C)[C@@H]5CC[C@]43C)[C@@H]12 (mixture of isomers) | 13.9 | 15.7 | 15.8 | 26.4 |  |  |  |  |  |
| C=C(C)[C@@H]1CC[C@]2(NCCN3CCS(=O)(=O)CC3)CC[C@]3(C)[C@H](CC[C@@H]4[C@@]5(C)CC=C(C6=CC[C@@](CF)(C(=O)O)CC6)C(C)(C)[C@@H]5CC[C@]43C)[C@@H]12 [FIPRAVIRIMAT] |  | 13.9 |  |  | < 1 |  |  |  |  |
| C=C(C)[C@@H]1CC[C@]2(NCCN3CCS(=O)(=O)CC3)CC[C@]3(C)[C@H](CC[C@@H]4[C@@]5(C)CC=C(C6=CCC(COc7nnnn7C)(C(=O)O)CC6)C(C)(C)[C@@H]5CC[C@]43C)[C@@H]12 (mixture of isomers) | 1.7 | 36 | 6.8 | 24.2 |  |  |  |  |  |
| C=C(C)[C@@H]1CC[C@]2(NCCN3CCS(=O)(=O)CC3)CC[C@]3(C)[C@H](CC[C@@H]4[C@@]5(C)CC=C(C6=CCC(COc7ccncc7)(C(=O)O)CC6)C(C)(C)[C@@H]5CC[C@]43C)[C@@H]12 (mixture of isomers) | 2.1 | 33.3 | 14.2 | 34.6 |  |  |  |  |  |
| C=C(C)[C@@H]1CC[C@]2(NCCN3CCS(=O)(=O)CC3)CC[C@]3(C)[C@H](CC[C@@H]4[C@@]5(C)CC=C(C6=CCC(COc7ccc(C#N)cn7)(C(=O)O)CC6)C(C)(C)[C@@H]5CC[C@]43C)[C@@H]12 (mixture of isomers) | 1.9 | 34.3 | 232 | 28.8 |  |  |  |  |  |
| C=C(C)[C@@H]1CC[C@]2(NCCN3CCS(=O)(=O)CC3)CC[C@]3(C)[C@H](CC[C@@H]4[C@@]5(C)CC=C(C6=CCC(COc7cccnc7)(C(=O)O)CC6)C(C)(C)[C@@H]5CC[C@]43C)[C@@H]12 (mixture of isomers) | 1.9 | 36.7 | 5.8 | 26.9 |  |  |  |  |  |
| C=C(C)[C@@H]1CC[C@]2(NCCN3CCS(=O)(=O)CC3)CC[C@]3(C)[C@H](CC[C@@H]4[C@@]5(C)CC=C(C6=CCC(COc7ccccn7)(C(=O)O)CC6)C(C)(C)[C@@H]5CC[C@]43C)[C@@H]12 (mixture of isomers) | 2.6 | 61 | 14.3 | 11.3 |  |  |  |  |  |
| C=C(C)[C@@H]1CC[C@]2(NCCN3CCS(=O)(=O)CC3)CC[C@]3(C)[C@H](CC[C@@H]4[C@@]5(C)CC=C(C6=CC[C@@](COc7ccccn7)(C(=O)O)CC6)C(C)(C)[C@@H]5CC[C@]43C)[C@@H]12 | 3.5 | 44.9 | 19.2 | 7.2 |  |  |  |  |  |
| C=C(C)[C@@H]1CC[C@]2(NCCN3CCS(=O)(=O)CC3)CC[C@]3(C)[C@H](CC[C@@H]4[C@@]5(C)CC=C(C6=CCC(COc7ccccc7F)(C(=O)O)CC6)C(C)(C)[C@@H]5CC[C@]43C)[C@@H]12 (mixture of isomers) | 6.1 | 58.4 | 19.3 | 27.3 |  |  |  |  |  |
| C=C(C)[C@@H]1CC[C@]2(NCCN3CCS(=O)(=O)CC3)CC[C@]3(C)[C@H](CC[C@@H]4[C@@]5(C)CC=C(C6=CCC(COc7ccc(F)cc7)(C(=O)O)CC6)C(C)(C)[C@@H]5CC[C@]43C)[C@@H]12 (mixture of isomers) | 4.7 | 74.5 | 26.5 | 21.7 |  |  |  |  |  |
| C=C(C)[C@@H]1CC[C@]2(NCCN3CCS(=O)(=O)CC3)CC[C@]3(C)[C@H](CC[C@@H]4[C@@]5(C)CC=C(C6=CCC(COc7ncccn7)(C(=O)O)CC6)C(C)(C)[C@@H]5CC[C@]43C)[C@@H]12 (mixture of isomers) | 1.8 | 52.1 | 12.6 | 4.5 |  |  |  |  |  |
| C=C(C)[C@@H]1CC[C@]2(NCCN3CCS(=O)(=O)CC3)CC[C@]3(C)[C@H](CC[C@@H]4[C@@]5(C)CC=C(C6=CC[C@@](COc7ncccc7C#N)(C(=O)O)CC6)C(C)(C)[C@@H]5CC[C@]43C)[C@@H]12 [ZEGRUVIRIMAT] | 2.5 | 41.1 | 5.8 | 52.6 |  |  |  |  |  |
| C=C(C)[C@@H]1CC[C@]2(NCCN3CCS(=O)(=O)CC3)CC[C@]3(C)[C@H](CC[C@@H]4[C@@]5(C)CC=C(C6=CCC(COc7ccc(Cl)cc7)(C(=O)O)CC6)C(C)(C)[C@@H]5CC[C@]43C)[C@@H]12 (stereo in doubt; 9) |  |  |  |  |  | 3.2 | 9.9 | 85.3 | 244 |
| C=C(C)[C@@H]1CC[C@]2(NCCN3CCS(=O)(=O)CC3)CC[C@]3(C)[C@H](CC[C@@H]4[C@@]5(C)CC=C(C6=CCC(COCc7ccccc7)(C(=O)O)CC6)C(C)(C)[C@@H]5CC[C@]43C)[C@@H]12 (mixture of isomers) | 7.8 | 98.2 | 22.1 | 49.8 |  |  |  |  |  |
| C=C(C)[C@@H]1CC[C@]2(NCCN3CCS(=O)(=O)CC3)CC[C@]3(C)[C@H](CC[C@@H]4[C@@]5(C)CC=C(C6=CCC(COc7nccs7)(C(=O)O)CC6)C(C)(C)[C@@H]5CC[C@]43C)[C@@H]12 (mixture of isomers) | 3.6 | 24.5 | 38.9 | 2.4 |  |  |  |  |  |
| C=C(C)[C@@H]1CC[C@]2(NCCN3CCS(=O)(=O)CC3)CC[C@]3(C)[C@H](CC[C@@H]4[C@@]5(C)CC=C(C6=CCC(COc7ccccc7Cl)(C(=O)O)CC6)C(C)(C)[C@@H]5CC[C@]43C)[C@@H]12 (mixture of isomers) | 9.7 | 59.7 | 23.1 | 20.1 |  |  |  |  |  |
| C=C(C)[C@@H]1CC[C@]2(NCCN3CCS(=O)(=O)CC3)CC[C@]3(C)[C@H](CC[C@@H]4[C@@]5(C)CC=C(C6=CC[C@](COc7ccccn7)(C(=O)O)CC6)C(C)(C)[C@@H]5CC[C@]43C)[C@@H]12 | 1.6 | 54.9 | 8.8 | 5.8 |  |  |  |  |  |
| C=C(C)[C@@H]1CC[C@]2(NCCN3CCS(=O)(=O)CC3)CC[C@]3(C)[C@H](CC[C@@H]4[C@@]5(C)CC=C(C6=CCC(COc7cccc(Cl)c7)(C(=O)O)CC6)C(C)(C)[C@@H]5CC[C@]43C)[C@@H]12 (mixture of isomers) | 10.7 | 22 | 49.2 | 16.8 |  |  |  |  |  |
| C=C(C)[C@@H]1CC[C@]2(NCCN3CCS(=O)(=O)CC3)CC[C@]3(C)[C@H](CC[C@@H]4[C@@]5(C)CC=C(C6=CCC(COc7cc(C#N)ccn7)(C(=O)O)CC6)C(C)(C)[C@@H]5CC[C@]43C)[C@@H]12 (mixture of isomers) | 0.9 | 46.3 | 64.1 | 71.8 |  |  |  |  |  |
| C=C(C)[C@@H]1CC[C@]2(NCCN3CCS(=O)(=O)CC3)CC[C@]3(C)[C@H](CC[C@@H]4[C@@]5(C)CC=C(C6=CCC(COc7ccccc7)(C(=O)O)CC6)C(C)(C)[C@@H]5CC[C@]43C)[C@@H]12 (mixture of isomers) | 5 | 58.4 | 27.8 | 19.7 |  |  |  |  |  |
| C=C(C)[C@@H]1CC[C@]2(NCCN3CCS(=O)(=O)CC3)CC[C@]3(C)[C@H](CC[C@@H]4[C@@]5(C)CC=C(C6=CCC(COc7ccc(Cl)cc7)(C(=O)O)CC6)C(C)(C)[C@@H]5CC[C@]43C)[C@@H]12 (stereo in doubt; 8) |  |  | 49.6 |  |  | 29.4 | 149 |  | 75.3 |
| C=C(C)[C@@H]1CC[C@]2(NCCN3CCS(=O)(=O)CC3)CC[C@]3(C)[C@H](CC[C@@H]4[C@@]5(C)CC=C(C6=CCC(COc7ccncn7)(C(=O)O)CC6)C(C)(C)[C@@H]5CC[C@]43C)[C@@H]12 (mixture of isomers) | 1.7 | 23.4 | 68.6 | 10 |  |  |  |  |  |
| C=C(C)[C@@H]1CC[C@]2(NCCN3CCS(=O)(=O)CC3)CC[C@]3(C)[C@H](CC[C@@H]4[C@@]5(C)CC=C(C6=CC[C@@](COc7cnccn7)(C(=O)O)CC6)C(C)(C)[C@@H]5CC[C@]43C)[C@@H]12 | 2.8 | 48.1 | 14.7 | 21.4 |  |  |  |  |  |
| C=C(C)[C@@H]1CC[C@]2(NCCN3CCS(=O)(=O)CC3)CC[C@]3(C)[C@H](CC[C@@H]4[C@@]5(C)CC=C(C6=CCC(COc7cccnn7)(C(=O)O)CC6)C(C)(C)[C@@H]5CC[C@]43C)[C@@H]12 (mixture of isomers) | 2.6 | 59.8 | 47.2 | 3.5 |  |  |  |  |  |
| C=C(C)[C@@H]1CC[C@]2(NCCN3CCS(=O)(=O)CC3)CC[C@]3(C)[C@H](CC[C@@H]4[C@@]5(C)CC=C(C6=CCC(COc7cccc(F)c7)(C(=O)O)CC6)C(C)(C)[C@@H]5CC[C@]43C)[C@@H]12 (mixture of isomers) | 8.3 | 14.8 | 34.3 | 55.7 |  |  |  |  |  |
| C=C(C)[C@@H]1CC[C@]2(NCCN3CCS(=O)(=O)CC3)CC[C@]3(C)[C@H](CC[C@@H]4[C@@]5(C)CC=C(c6ccc(C(=O)O)cc6)C(C)(C)[C@@H]5CC[C@]43C)[C@@H]12 |  |  |  |  | < 1 |  |  |  |  |
